Patent US8232315B2, “Methods for treating drug addiction and improving addiction-related behavior” (SK Biopharmaceuticals Co., Ltd., priority 2009, dated 2012)

Test system: monkeys trained to discriminate cocaine (0.40 mg/kg) from saline
Test: Cocaine drug discrimination (substitution protocol) in rhesus monkeys
Assay type: in vivo, rhesus monkeys (Macaca mulatta)
Conditions: 0.40 mg/kg cocaine i.m.; training days preceding test days
Description: Subjects: The subjects were four male rhesus monkeys (Macaca mulatta) each weighing 7.0-8.0 kg. Each monkey was maintained on a diet of 7-12 monkey biscuits (Purina Monkey Chow Jumbo #5037) and one piece of fresh fruit per day. During the week, all food was delivered after the experimental session, whereas on weekends, food was delivered between 9 a.m. and noon. Water was freely available at all times. The room in which the monkeys were housed was maintained on a 12-hr light/dark cycle, with lights on from 7 a.m. to 7 p.m.
Apparatus: Each monkey was housed individually in a well-ventilated, stainless steel chamber (56×71×69 cm). The home cages of all monkeys were modified to include an operant panel (28×28 cm) mounted on the front wall. Three square translucent response keys (6.4×6.4 cm) were arranged 2.54 cm apart in a horizontal row 3.2 cm from the top of the operant panel. Each key could be transilluminated by red or green stimulus lights (Superbright LED'S). In addition, the operant panel supported an externally mounted pellet dispenser (Gerbrands, Model G53 10, Arlington, Mass.) that delivered 1 gm fruit-flavored food pellets (Precision Primate Pellets Formula L/I Banana Flavor, P. J. Noyes Co., Lancaster, N.H.) to a food receptacle mounted on the cage beneath the operant response panel. Operation of the operant panels and data collection were accomplished with IBM-compatible computers and interface systems (MedAssociates; St. Albans, Vt.) located in a separate room.
Discrimination Training: Discrimination training was conducted 5 days per week during daily sessions composed of multiple cycles. Each cycle consisted of a 15-min time-out period followed by a 5-min response period. During the time-out, all stimulus lights were off, and responding had no scheduled consequences. During the response period, the right and left response keys were transilluminated red or green, and monkeys could earn up to 10 food pellets by responding under a FR 30 schedule of food presentation. For all four monkeys in this study, the left key was illuminated green, and the right key was illuminated red. The center key was not illuminated at any time, and responding on the center key had no scheduled consequences. If all available food pellets were delivered before the end of the 5-min response period, the stimulus lights transilluminating the response keys were turned off, and responding had no scheduled consequences for the remainder of the 5-min period.
On training days, monkeys were given an i.m. injection of either saline or 0.40 mg/kg cocaine 5-min after the beginning of each time-out period (i.e., 10 min before the response period). Following the administration of saline, responding on only the green key (the saline-appropriate key) produced food, whereas following administration of 0.40 mg/kg cocaine, only responding on the red key (the drug-appropriate key) produced food. Responses on the inappropriate key reset the FR requirement on the appropriate key. Sessions consisted of 1 to 5 cycles, and if the training dose of cocaine was administered, it was administered only during the last cycle. Thus, training days consisted of 0 to 5 saline cycles followed by 0 to 1 drug cycles.
During each response period, 3 dependent variables were determined using the following equations.
1) Percent injection-appropriate responding prior to delivery of the first reinforcer.
2) Percent injection-appropriate responding for the entire response period.
Monkeys were considered to have acquired cocaine discrimination when the following three criteria were met for 7 of 8 consecutive training sessions: 1) the percent injection-appropriate responding prior to delivery of the first reinforcer was greater than or equal to 80% for all cycles; 2) the percent injection-appropriate responding for the entire cycle was greater than or equal to 90% for all cycles; 3) response rates during saline training cycles were greater than 0.5 responses per second. […]

Structure (SMILES): COC(=O)[C@H]1[C@@H](OC(=O)c2ccccc2)C[C@@H]2CC[C@H]1N2C [cocaine, reference compound]
- Mean response rate during drug training cycles: 2.58 (±0.67) responses/sec
